Reference: ChEMBL document CHEMBL5370560, “Isolation of Anti-SARS-CoV-2 Natural Products Extracted from Mentha canadensis and the Semi-synthesis of Antiviral Derivatives” (J Nat Prod, 2023)

Target: Replicase polyprotein 1ab (Severe acute respiratory syndrome coronavirus 2, UniProt P0DTD1)
Experiment: Inhibition of recombinant SARS-CoV-2 Delta 3CL protease using Dabcyl-KTSAVLQSGFRKME-Edans as substrate preincubated for 30 mins followed by substrate addition and measured for 1 hr by fluorescence based microplate reader analysis

Row | SMILES | IC50 [µM]
1 | CCc1cccc(NC(=O)[C@@H](Cc2ccc(O)c(O)c2)OC(=O)/C=C/c2ccc(O)c(O)c2)c1 | 45.7
2 | CCCCCCCCCCCCNC(=O)[C@@H](Cc1ccc(O)c(O)c1)OC(=O)/C=C/c1ccc(O)c(O)c1 | 40.8
